Measured values taken from patent US8168596B2, “Use of cycloartane compounds for treating arthritis” (NuLiv Holding Inc., priority 2008, dated 2012).

Experiments:
MMP-13 = assay: Western blot of MMP-13 in PMA- or IL-1β-pre-treated SW1353 cells (Example 6); format: cell-based, human; details: 0.1 μM, 48 h
Method: The cells were then plated on 6-cm dishes at a density of 1×10^6 cells/dish for 24 hours prior to any treatment. At the beginning of the experiment, the cells were pre-treated with 100 ng/mL PMA or 10 ng/mL IL-1β for 24 hours. The cells were then treated 0.1 μM Dexamethasone with, various astragaloside compounds (0.1 μM) or extracts of Astragalus membranaceous (1 μg/mL) at indicated dosages for another 48 hours. For control sample, 0.1% DMSO was used as a negative control for these experiments. The conditioned culture mediums were then centrifuged, 2-fold concentrated and collected for assay of collagens or MMPs secreted into the culture medium.
Western blotting analysis was carried out on both cultured medium and cell lysates, as follows. The cells were washed and lysed in 0.2 mL of lysis buffer (1% NP-40, 50 mM Tris-HCl, pH 7.4, 180 mM NaCl, 1 mM EDTA, 1 mM PMSF, 1 mM NaF, 10 mM Na3VO4) for 30 min at 4° C. After centrifuging at 17500 g for 15 min, the supernatants of cell lysate were also collected. Protein concentration of the samples were measured using the bicinchoninic acid (BCA) protein assay kit according to the manufacturer's protocol (Pierce, Rockford, Ill., USA). Equal amount of protein samples of concentrated conditioned medium (100 μg) or cell lysate supernatants (50 μg) were mixed with an appropriate volume of 4×SDS sampling buffer and separated by 8% SDS-PAGE gel. The protein bands separated in the SDS-PAGE gel were blotted onto a polyvinylidene fluoride (PVDF) membrane. The blotted PVDF membrane was washed twice and blocked in freshly prepared Tris-buffered saline (TBS) containing 0.1% Tween-20 and 7% skim milk (TBST) for 2 hours at room temperature. […] Horseradish peroxidase-conjugated anti-goat antibody was used as secondary antibody. Signals were visualized by an enhanced chemiluminescence kit (Clonetech, Palo Alto, Calif., USA) followed by exposure to X-ray films.

TIMP1 mRNA = assay: RT-PCR of TIMP1 mRNA expression in SW1353 cells; format: cell-based, human; details: for TIMP1 mRNA expression after AS4 treatment followed by PMA: then 100 ng/mL PMA 24 h; for TIMP mRNA expression after only AS4 treatment: 24 h, no PMA
Method: First of all, the interaction between TIMP1 mRNA expression and MMP1 mRNA expression in human SW1353 cell line after only AS4 treatment was studied. […] The SW1353 cells were then collected for RT-PCR analysis.
In a second testing, the effect of AS4 treatment followed by PMA treatment was also studied. The SW1353 cells were first treated with astragaloside IV (AS4) at a concentration of 0.01 μM, 0.1 μM, or 1 μM, followed by incubation for 24 hours. Then PMA was added into each well, followed by incubation for 24 hours. These SW1353 cells were also collected for RT-PCR analysis in the end of the second testing.
Total RNAs were isolated from the cultured human cells using NucleoSpin RNAII Kit (Macherey-Nagel Inc., PA, USA). Five μg of RNA was reverse transcribed in a total 20 μl transcription mixture. The reaction tube containing primers (oligo(dT)), RNA, 10 mM dNTP Mix, and DEPC-treated water was first incubated at 65° C. for 5 minutes. Eight μl master reaction mixture containing 4 μl 5× cDNA synthesis Buffer, 1 μl 0.1 M DTT, 1 μl RNase OUT™ (40U/μl), 1 μl DEPC-Treated water, and 1 μl SuperScript™II was then added into the reaction tube. The reaction tube was then incubated at 50° C. for 60 minutes, followed by incubation at 85° C. for 5 minutes. Finally, 1 μl RNase H was added at 37° C. and the reaction tube was incubated for 20 minutes. The resulting cDNA was further amplified by PCR. The relevant primers for the following PCR reaction were listed below.
(ii) the TIMP1 forward primer is 5′-AATTCCGACCTCGTCATCAG-3′ (SEQ ID NO: 3) and the TIMP1 reverse primer is 5′-TGCAGTTTTCCAGCAATGAG-3′ (SEQ ID NO: 4); and
In addition, the PCR reaction of MMP1 cDNA was preformed as follows: 95° C. for 5 min, followed by 35 cycles of 94° C. for 30 sec, 60° C. for 30 sec, and 72° C. for 30 sec, and then 72° C. for 10 min followed by maintaining at 4° C. Similarly, the PCR reaction of TIMP1 cDNA was performed as follows: 94° C. for 5 min, followed by 35 cycles of 94° C. for 30 sec, 60° C. for 30 sec, and 72° C. for 30 sec, and then 72° C. for 10 min followed by maintaining at 4° C. The PCR reaction of GAPDH cDNA was performed as follows: 94° C. for 5 min, followed by 18 cycles of 94° C. for 30 sec, 54° C. for 30 sec, and 72° C. for 30 sec, and then 72° C. for 30 sec followed by maintaining at 4° C. These PCR products were analyzed by electrophoresis on a 1.5% gel.

CC(C)(O)[C@@H]1CC[C@](C)([C@H]2[C@@H](O)C[C@@]3(C)[C@@H]4C[C@H](O[C@@H]5O[C@H](CO)[C@@H](O)[C@H](O)[C@H]5O)[C@H]5C(C)(C)[C@@H](O[C@@H]6OC[C@@H](O)[C@H](O)[C@H]6O)CC[C@@]56C[C@@]46CC[C@]23C)O1 [AS4, Astragaloside IV]
MMP-13, Western blot, relative to Ctrl 1.00 (MMP-13; IL-1β-pre-treated SW1353 cell extract): 1.10
MMP-13, Western blot, relative to Ctrl 1.00 (MMP-13; IL-1β-pre-treated SW1353 culture medium): 0.56
MMP-13, Western blot, relative to Ctrl 1.00 (MMP-13; PMA-pre-treated SW1353 cell extract): 0.79
TIMP1 mRNA expression after AS4 treatment followed by PMA (TIMP1 mRNA; AS4 0.01 μM 24 h): 1.36
TIMP mRNA expression after only AS4 treatment (TIMP1 mRNA; AS4 0.01 μM): 0.87
TIMP1 mRNA expression after AS4 treatment followed by PMA (TIMP1 mRNA; AS4 0.1 μM 24 h): 1.34
TIMP mRNA expression after only AS4 treatment (TIMP1 mRNA; AS4 0.1 μM): 0.90
TIMP1 mRNA expression after AS4 treatment followed by PMA (TIMP1 mRNA; AS4 1 μM 24 h): 1.31
TIMP mRNA expression after only AS4 treatment (TIMP1 mRNA; AS4 1 μM): 0.84
